Measurements taken from patent US20150190416A1, “FILAGGRIN PRODUCTION PROMOTER, THERAPEUTIC AGENT FOR DISEASES ASSOCIATED WITH REDUCTION IN PRODUCTION OF FILAGGRIN, AND METHOD FOR SCREENING FOR SAID THERAPEUTIC AGENT” (KYOTO UNIVERSITY, priority 2012, published 2015).

Tests used:
Assay type in all cases: cell-based, human
[1] = system: GPR142; test: G protein-coupled receptor (GPCR) array in NHEK cells, GPR142 (Example 3); conditions: Compound 1 1 μM, 3 days
Method: In this example, the expression-increasing effect of Compound 1 on a GPCR in NHEK cells was confirmed by using a GPCR array.
(§1) 1) 5×10^4 cells/well of NHEK cells (Invitrogen) were plated on a 24-well plate, and then 500 μl of a culture medium containing a medium for proliferating normal human epidermal keratinocytes (HuMedia-KG2, KURABO INDUSTRIES LTD.) supplemented with hEGF (0.1 ng/ml), insulin (10 μg/ml), hydrocortisone (0.5 μg/ml), gentamycin (50 μg/ml), amphotericin B (50 ng/ml), and bovine brain pituitary extract (BPE) (0.4%, v/v) were added to the plate, and the cells were cultured under the conditions of 37° C. and 5% CO2 for from 3 to 4 days until the 80 to 85% confluent state was achieved.
2) Next, a DMSO solution of Compound 1 was added to the medium at 1 μM per well, and culture was further conducted for 3 days without changing the medium. In addition, regarding the system to which only CaCl2 (1.5 mM in terms of Ca) as Ca was added and the system to which both Compound 1 and CaCl2 (1.5 mM in terms of Ca) as Ca were added, the culture was conducted in a similar manner for 3 days. As a control example, a solvent only (vehicle) was added.
3) An extraction reagent (TRIzol™, Invitrogen) was used, and according to the manufacturer's protocol, total RNA was extracted from each of cells treated in the step 2). A reverse transcriptase reagent (Prime Script™, Takara) was used, and according to the manufacturer's protocol, cDNA was prepared from the total RNA. Next, a TaqMan™ human GPCR array (AB 4365295, Applied Biosystems) was used, and the analysis was conducted by an ABI PRISM™ 7900HT gene analyzer (Applied Biosystems). The result of measurement was shown as the comparison of the cycle number (ΔCt value) to 18S ribosomal RNA as a control (comparative Ct method).

[2] = system: GPR142; test: Blocking effect by GPR142 RNAi in NHEK cells (Examples 5 and 6); conditions: calcium priming, siRNA 50 nM, Compound 1 10 nM, 1 day
Method: In this example, it was confirmed that the expression-inducing effects of Compound 1 on GPR142 mRNA and FLG mRNA in NHEK cells were blocked by GPR142 RNAi.
as §1, with “plate. Then,” for “plate, and then”, “CO2.” for “CO2 for from 3 to 4 days until the 80 to 85% confluent state was achieved.”
2) After culture under the conditions of the step 1) for 1 day, the medium was exchanged for the culture medium of the step 1) to which CaCl2 (1.2 mM in terms of Ca) was further added as Ca, and culture was conducted under the conditions of 37° C. and 5% CO2. After culture for 1 day, the medium was exchanged for the same culture medium containing Ca, and culture was further conducted for 1 day.
3) The NHEK cells of the step 2) were transfected with 50 nM of siRNA per well of the 24-well plate by using a transfection reagent, Lipofectamine RNA Max (Invitrogen) according to the manufacturer's protocol.
The sequences of the used three kinds of GPR142 siRNAs and the sequences of the used control siRNAs (all the siRNAs are manufactured by Invitrogen) are described below.
4) After culture for 1 day after the transfection with siRNA in the step 3), the medium was exchanged for the culture medium of the step 1) to which a DMSO solution of Compound 1 was added at 10 nM per well, and culture was further conducted for 1 day. As a control, a solvent only (vehicle) was added.
(§2) 5) An extraction reagent (TRIzol™, Invitrogen) was used, and according to the manufacturer's protocol, total RNA was extracted from each of cells treated with the medicament. A reverse transcriptase reagent (Prime Script™, Takara) was used, and according to the manufacturer's protocol, cDNA was prepared from the total RNA. Next, real-time PCR was conducted by using the following primers and SYBR™ Premix Ex Taq (Takara) with a CFX96 real-time PCR instrument according to the manufacturer's protocol, and the amounts of GPR142 mRNA and FLG mRNA expression were measured. The result of measurement is shown as a GAPDH ratio.
In this example, it was confirmed that the expression-inducing effects of Compound 2 or 3 on GPR142 mRNA and FLG mRNA in NHEK cells were blocked by GPR142 RNAi.
NHEK cells were transfected in the same manner as in Example 5 except that, in the steps 1) to 3) of Example 5, two kinds of GPR142 siRNAs and two kinds of control siRNAs, i.e., GPR142-1 (#HSS139493) and GPR142-3 (#HSS179846) and Control-1 (LOW GC, #129350-200), and Control-3 (HIGH GC, #129350-400) were used as GPR142 siRNAs and control siRNAs, respectively. After culture for 1 day after the transfection was conducted in the same manner as in the step 4) of Example 5, the medium was exchanged for the culture medium to which each of a DMSO solution of Compound 1, a DMSO solution of Compound 2, or a methanol solution of Compound 3 was added at 10 nM per well, and culture was further conducted for 1 day. As a control, a solvent only (vehicle) was added. Regarding each of cells treated with the medicament, real-time PCR was conducted to measure the amounts of GPR142 mRNA and FLG mRNA in the same manner as in the step 5) of Example 5. The results of the measurement are shown as a GAPDH ratio.

[3] = system: GPR142 mRNA; test: GPR142 mRNA expression in NHEK cells, real-time PCR (Example 4); conditions: Compound 1 1 μM, Ca 1.2 mM, 3 days, compared to the control
Method: In this example, the expression-inducing effects of Compound 1 on GPR142 mRNA and GPR22 mRNA in NHEK cells were confirmed.
as §1, with “plate. Then,” for “plate, and then”, “CO2.” for “CO2 for from 3 to 4 days until the 80 to 85% confluent state was achieved.”
2) After culture under the conditions of the step 1) for 1 day, the medium was exchanged for the culture medium of the step 1) to which a DMSO solution of Compound 1 was added at 1 μM per well every day and the culture was conducted for 3 days. […]
3) An extraction reagent (TRIzol™, Invitrogen) was used, and according to the manufacturer's protocol, total RNA was extracted from each of cells treated with the medicament. […] Next, real-time PCR was conducted by using the following primers and SYBR™ Premix Ex Taq (Takara) with a CFX96 real-time PCR instrument according to the manufacturer's protocol, and the amounts of GPR142mRNA and GPR22mRNA expression were measured. […]

[4] = system: GPR22; test: Blocking effect by GPR22 RNAi in NHEK cells (Reference Example 1); conditions: calcium priming, siRNA 10 nM, Compound 1 10 nM, 1 day
Method: as §1, with “plate. Then,” for “plate, and then”, “CO2.” for “CO2 for from 3 to 4 days until the 80 to 85% confluent state was achieved.”
2) 1 day after the step 1), the medium was exchanged for the medium supplemented with calcium every day, and culture was conducted for 2 days (priming).
3) The NHEK cells of the step 2) were transfected with 10 nM of siRNA per well of the 24-well plate by using a transfection reagent, Lipofectamine RNA Max (Invitrogen) according to the manufacturer's protocol.
4) After culture for 1 day after the step 3), the medium was exchanged for a medium to which Compound 1 dissolved in DMSO was added at 10 nM per well on the 24-well plate, and culture was conducted for 1 day. As a control example, a solvent only (vehicle) was added.
as §2, with “Real-time” for “Next, real-time”, “using” for “using the following primers and”, “GPR22” for “GPR142”, “mRNA” for “mRNA expression”, “results” for “result”, “are” for “is”

[Ca+2].[Cl-].[Cl-] [Calcium, CaCl2, reference compound]
GPR142 mRNA expression (GPCR array), in words ([1]; Ca 1.5 mM): induced GPR142 mRNA expression | GPR142: cycle number (ΔCt value) to 18S ribosomal RNA ([1]; CaCl2 1.5 mM in terms of Ca, control 29.2): −4.9 | FLG mRNA expression in the presence of GPR142 siRNA [2]: suppressed by GPR142 siRNA | GPR142 mRNA expression in the presence of GPR142 siRNA [2]: suppressed by GPR142 siRNA | GPR142 mRNA expression (GAPDH ratio) [3]: GPR142 mRNA expression was induced | FLG mRNA expression in the presence of GPR22 siRNA [4]: not suppressed | GPR22 mRNA expression in the presence of GPR22 siRNA [4]: suppressed by GPR22 siRNA
